This is an account of results in US11980636B2, “Treatment of hematological disorders” (Jazz Pharmaceuticals Ireland Limited, priority 2020, dated 2024).

Read-outs that look alike come from different tables or passages of the source.

One data set can be described thus: clinical. The note with it: human, in vivo, intravenous; for Vd: 195 mg.
The conditions of data set [1]: for Vp (Vp2), peripheral volume of distribution: population mean coefficient at BSA 1.95 (daunorubicin dose 86 mg), following CPX-351; for CLd (CLd2), distribution clearance: population mean coefficient at BSA 1.95, following CPX-351.
Another data set relates to SKM-1 cells. The data set can be described thus: CellTiter-Glo cell viability, 72 hours. The note with it: Homo sapiens. It counts as cell-based. As to the method: (§1) AML cell lines used were: HL-60 (ATCC), SKM-1 (Sekisui XenoTech) and KG-1 (ATCC). Acute Lymphoid Leukemia (ALL) cell lines used were: CCRF-CEM (ATCC), MOLT-3 (ATCC), and Jurkat E6-1 (ATCC). […] After 24 hours, cells were dosed with CPX-351, venetoclax, azacitidine, decitabine, and/or cytarabine. CPX-351 and cytarabine were each dosed in a titration starting at 50 μM (for CPX-351, this was measured by its cytarabine content), with 8 additional serial dilutions of 5× each and a final group with no treatment. […] For the combination treatment of CPX-351 and venetoclax, the same titrations were used as in single-agent treatment. About 72 hours after dosing, cell viability was measured by CellTiter-Glo assay (Promega) according to manufacturer instructions; luminescence was measured and IC50 values were estimated by Cytation Multi-Mode reader (BioTek).
A general note: ATP-based viability assays read luminescence as a measure of living cells.

The next data set relates to MOLT-3 cells. The data set can be described thus: CellTiter-Glo cell viability, 72 hours. In kind it is cell-based. Particulars: Homo sapiens. On the procedure:
as §1

The next data set has as its system HL-60 cells. The data set can be described thus: CellTiter-Glo cell viability, 72 hours. In kind it is cell-based. The note with it: Homo sapiens. As to the method:
as §1

The next data set relates to Jurkat E6-1 cells. Put plainly: CellTiter-Glo cell viability, 72 hours. In kind it is cell-based. The note with it: Homo sapiens. On the procedure: as §1
The next data set has as its system KG-1 cells. Put plainly: CellTiter-Glo cell viability, 72 hours. Particulars: Homo sapiens. It counts as cell-based. As to the method:
as §1

The test system of another data set is CCRF-CEM cells. The data set can be described thus: CellTiter-Glo cell viability, 72 hours. In kind it is cell-based. The note with it: Homo sapiens, read-out: IC50 values. As to the method:
as §1

The target of the next data set is T1, GCSF receptor (Homo sapiens, UniProt Q99062).
T1 sequence (Q99062 25-836): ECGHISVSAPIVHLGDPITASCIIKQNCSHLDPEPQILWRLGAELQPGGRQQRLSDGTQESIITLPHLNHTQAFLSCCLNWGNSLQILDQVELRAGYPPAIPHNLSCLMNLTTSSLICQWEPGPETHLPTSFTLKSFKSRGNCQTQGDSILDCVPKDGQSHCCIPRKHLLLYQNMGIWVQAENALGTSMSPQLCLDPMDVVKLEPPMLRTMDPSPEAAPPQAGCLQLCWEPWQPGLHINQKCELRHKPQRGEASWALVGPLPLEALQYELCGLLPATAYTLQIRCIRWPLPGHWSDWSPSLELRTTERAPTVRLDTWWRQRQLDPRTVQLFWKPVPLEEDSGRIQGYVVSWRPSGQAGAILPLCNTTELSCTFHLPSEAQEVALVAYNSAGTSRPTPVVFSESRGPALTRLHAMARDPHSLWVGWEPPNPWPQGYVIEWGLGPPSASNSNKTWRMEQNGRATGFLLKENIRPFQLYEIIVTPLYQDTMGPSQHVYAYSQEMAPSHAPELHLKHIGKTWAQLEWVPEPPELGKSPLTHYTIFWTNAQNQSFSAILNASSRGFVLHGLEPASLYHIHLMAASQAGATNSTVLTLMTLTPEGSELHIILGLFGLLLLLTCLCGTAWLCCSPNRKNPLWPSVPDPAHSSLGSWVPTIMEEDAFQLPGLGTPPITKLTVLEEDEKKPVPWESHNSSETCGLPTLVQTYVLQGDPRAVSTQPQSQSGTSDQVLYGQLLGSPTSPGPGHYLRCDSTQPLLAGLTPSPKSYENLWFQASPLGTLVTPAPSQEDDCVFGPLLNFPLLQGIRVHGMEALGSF
The note with it: population mean, cited from earlier work; for Kd: read-out: KD, equilibrium dissociation constant for GCSF and GCSF receptor.

For data set [2] the following is noted: in vivo; cited from earlier work.
Where [3] appears, read: SKM-1, AML, CPX-351 by cytarabine content, read-out: IC50 values.
[4] abbreviates: MOLT-3, ALL, CPX-351 by cytarabine content, read-out: IC50 values.
The mark [5] stands for this setting: HL-60, HL60, AML, CPX-351 by cytarabine content, read-out: IC50 values.
Setting [6] is: Jurkat E6-1, ALL, CPX-351 by cytarabine content, read-out: IC50 values.
Where [7] appears, read: KG-1, AML, CPX-351 by cytarabine content, read-out: IC50 values.
The mark [8] stands for this setting: ALL, CPX-351 by cytarabine content.

The term clearance denotes the volume of plasma or blood freed of the substance per unit of time. The term Vd denotes a proportionality between amount in the body and measured concentration, not a real space. The low end stands for little distribution into tissue, the high end for wide distribution into tissue. A word on the IC50: it is the concentration that inhibits the measured activity by half. By Kd is commonly meant the free concentration of one partner at which half of the binding sites on the other are occupied at equilibrium, for simple one-to-one binding.

Molecule `Nc1ccn([C@@H]2O[C@H](CO)[C@@H](O)[C@@H]2O)c(=O)n1` [Cytarabine, 1-β-D-arabinofuranosylcytosine] showed a clearance in the data set “clinical” of 1.77 mL/min. In the data set “clinical”, this molecule came in with a Vd of 5.12 L. For the same molecule, the “Vp (Vp2), peripheral volume of distribution” value in data set [1] was 0.214 · (BSA/1.95)^1 L. Moreover, the “CLd (CLd2), distribution clearance” value in [1] is reported as 0.00646 · (BSA/1.95)^1 L/h. In addition, the IC50 is 540 nM with SKM-1 cells (setting [3]); 80 nM in the data set with MOLT-3 cells (setting [4]); 850 nM with HL-60 cells (setting [5]); 40 nM in the data set with Jurkat E6-1 cells (setting [6]); 240 nM in the data set on KG-1 cells (setting [7]); 30 nM in the data set with CCRF-CEM cells (setting [8]).

For `Nc1ncn([C@H]2C[C@H](O)[C@@H](CO)O2)c(=O)n1` [Decitabine], the IC50 stood at 240 nM in the data set with SKM-1 cells (SKM-1, read-out: IC50 values); 230 nM with MOLT-3 cells (MOLT-3, read-out: IC50 values); 820 nM in the data set with HL-60 cells (HL-60, read-out: IC50 values); 100 nM in the data set on Jurkat E6-1 cells (Jurkat E6.1, read-out: IC50 values); 360 nM with KG-1 cells (KG-1, read-out: IC50 values); 40 nM in the data set with CCRF-CEM cells.

As for `COc1cccc2c1C(=O)c1c(O)c3c(c(O)c1C2=O)C[C@@](O)(C(C)=O)C[C@@H]3O[C@H]1C[C@H](N)[C@H](O)[C@H](C)O1` [Daunorubicin], in “clinical”, the clearance was 2.42 mL/min and the distribution volume (Vd) amounted to 4.34 L. Besides, in [1], the “Vp (Vp2), peripheral volume of distribution” value is 0.523 · (BSA/1.95)^1 · L and the “CLd (CLd2), distribution clearance” value was 0.0258 · (BSA/1.95)^1 L/h.

With `CC1(C)CCC(CN2CCN(c3ccc(C(=O)NS(=O)(=O)c4ccc(NCC5CCOCC5)c([N+](=O)[O-])c4)c(Oc4cnc5[nH]ccc5c4)c3)CC2)=C(c2ccc(Cl)cc2)C1` [Venetoclax], the IC50 stood at 1500 nM with SKM-1 cells (setting [3]); 1000 nM in the data set with MOLT-3 cells (setting [4]); 50 nM in the data set with HL-60 cells (setting [5]); 3500 nM in the data set with Jurkat E6-1 cells (setting [6]); 2100 nM with KG-1 cells (setting [7]); 2800 nM in the data set on CCRF-CEM cells (setting [8]).

For the molecule `Nc1ncn([C@@H]2O[C@H](CO)[C@@H](O)[C@H]2O)c(=O)n1` [Azacitidine], the IC50 in the data set with SKM-1 cells (setting [3]) came to 420 nM; in the data set on MOLT-3 cells (setting [4]), 4030 nM; in the data set with HL-60 cells (setting [5]), 1420 nM; with Jurkat E6-1 cells (setting [6]), 980 nM; in the data set on KG-1 cells (setting [7]), 4000 nM; with CCRF-CEM cells (setting [8]) it was 1580 nM.

B1: Filgrastim: exogenous GCSF agent (protein, UniProt P09919 31-207, looked up)
Granulocyte …: TPLGPASSLPQSFLLKCLEQVRKIQGDGAALQEKLVSECATYKLCHPEELVLLGHSLGIPWAPLSSCPSQALQLAGCLSQLHSGLFLYQGLLQALEGISPELGPTLDTLQLDVADFATTIWQQMEELGMAPALQPTQGAMPAFASAFQRRAGGVLVASHLQSFLEVSYRVLRHLAQP
modifications: filgrastim, N-terminal Met
notes: exogenous GCSF agent
For the molecule B1, in the data set with GCSF receptor, the “kint, first-order rate constant for internalization of GCSF receptor complexed with filgrastim or pegfilgrastim” value is 0.113 h⁻¹ and the dissociation constant (Kd) was 0.0237 nM. In [2], the “CL, clearance” value was 0.833 · (WTKG/70)^0.641 L/h; the “D2, duration of the zero-order absorption process” value is 6.6 h; the “F1, bioavailability of first-order absorption process” value is recorded as 0.105; the “F2, bioavailability of zero-order absorption process” value was 0.586. In data set [2], the “Vc, central volume of distribution” value is 3.12 · (WTKG/70)^0.943 L and the “ka, first-order absorption rate constant” value was 0.403 h⁻¹.

B2: Pegfilgrastim: exogenous GCSF agent (protein, UniProt P09919 31-207, looked up)
Granulocyte …: TPLGPASSLPQSFLLKCLEQVRKIQGDGAALQEKLVSECATYKLCHPEELVLLGHSLGIPWAPLSSCPSQALQLAGCLSQLHSGLFLYQGLLQALEGISPELGPTLDTLQLDVADFATTIWQQMEELGMAPALQPTQGAMPAFASAFQRRAGGVLVASHLQSFLEVSYRVLRHLAQP
modifications: pegfilgrastim; PEGylated, N-terminal Met
notes: exogenous GCSF agent
Consider B2, for which, in the data set with GCSF receptor, the “kint, first-order rate constant for internalization of GCSF receptor complexed with filgrastim or pegfilgrastim” value was 0.113 h⁻¹ and the Kd was 0.0959 nM. In [2], the “F1, bioavailability of first-order absorption process” value is given as 0.646; the “Vc, central volume of distribution” value is listed as 5.76 · (WTKG/70)^0.943 L; the clearance is 6.03 mL/min; the “ka, first-order absorption rate constant” value is 0.0188 h⁻¹.
